Patent publication US8940730B2, “Methods and compositions of treating a Flaviviridae family viral infection” (The Board of Trustees of the Leland Stanford Junior …, priority 2007, dated 2015)

Tested on: HCV RNA replication
Experiment: Luciferase assay of HCV RNA replication (Table 3)
Settings: Hepatitis C virus, read-out: Residual Luciferase activity

CN(C)CCCOc1nn(Cc2ccccc2)c2ccccc12 [Compound 184]
activity at 5 µM: > 80% | activity at 10 µM: 20 to 54%

c1ccc(Cn2ncc3ccccc32)cc1 [Compound 185]
activity at 5 µM: > 80% | activity at 10 µM: > 80%

Brc1ccc(Cn2ncc3ccccc32)cc1 [Compound 186]
activity at 5 µM: > 80% | activity at 10 µM: > 80%

Cc1ccc2c(c1)c(OCCCN(C)C)nn2Cc1ccccc1 [Compound 187]
activity at 5 µM: 55 to 80% | activity at 10 µM: 20 to 54%

Cc1ccc2c(c1)c(O)nn2Cc1ccccc1 [Compound 188]
activity at 5 µM: > 80% | activity at 10 µM: 20 to 54%

Oc1nn(Cc2ccccc2)c2ccccc12 [Compound 189]
activity at 5 µM: > 80% | activity at 10 µM: > 80%

Cl.c1ccc(Cn2nc(OCCN3CCCCC3)c3ccccc32)cc1 [Compound 190]
activity at 5 µM: > 80% | activity at 10 µM: 55 to 80%

Cc1ccc2c(c1)c(OCCN1CCCCC1)nn2Cc1ccccc1.Cl [Compound 191]
activity at 5 µM: 55 to 80% | activity at 10 µM: < 20%

Cl.c1ccc(Cn2nc(OCCCN3CCCC3)c3ccccc32)cc1 [Compound 192]
activity at 5 µM: 55 to 80% | activity at 10 µM: 20 to 54%

Cc1ccc2c(c1)c(OCCCN1CCCC1)nn2Cc1ccccc1 [Compound 193]
activity at 5 µM: 20 to 54% | activity at 10 µM: < 20%

Cl.c1ccc(Cn2nc(OCCN3CCCC3)c3ccccc32)cc1 [Compound 194]
activity at 5 µM: > 80% | activity at 10 µM: 55 to 80%

CN(C)CCOc1nn(Cc2ccccc2)c2ccccc12 [Compound 195]
activity at 5 µM: > 80% | activity at 10 µM: > 80%

Cc1ccc2c(c1)c(OCCN1CCCC1)nn2Cc1ccccc1 [Compound 196]
activity at 5 µM: 55 to 80% | activity at 10 µM: 20 to 54%

Cc1ccc2c(c1)c(OCCN(C)C)nn2Cc1ccccc1 [Compound 197]
activity at 5 µM: > 80% | activity at 10 µM: 20 to 54%

c1ccc(Cn2nc(OCCCN3CCCCC3)c3ccccc32)cc1 [Compound 198]
activity at 5 µM: 20 to 54% | activity at 10 µM: < 20%

Cc1ccc2c(c1)c(OCCCN1CCCCC1)nn2Cc1ccccc1 [Compound 199]
activity at 5 µM: 20 to 54% | activity at 10 µM: < 20%

Cc1cc2c(cnn2Cc2ccc(Cl)cc2)cc1Cl [Compound 200]
activity at 5 µM: > 80% | activity at 10 µM: 55 to 80%

Cc1cc2cnn(Cc3ccc(Cl)cc3)c2cc1Br [Compound 201]
activity at 5 µM: > 80% | activity at 10 µM: 55 to 80%

Cc1cc2c(cnn2Cc2ccc(Cl)cc2)cc1Br [Compound 202]
activity at 5 µM: > 80% | activity at 10 µM: > 80%

O=[N+]([O-])c1cc2cnn(Cc3ccc(Cl)cc3)c2cc1Cl [Compound 203]
activity at 5 µM: > 80% | activity at 10 µM: 20 to 54%

Cc1cc2c(cnn2Cc2ccc(Cl)cc2)cc1[N+](=O)[O-] [Compound 204]
activity at 5 µM: 55 to 80% | activity at 10 µM: 20 to 54%

Clc1ccc(Cn2ncc3cc(Br)ccc32)cc1 [Compound 205]
activity at 5 µM: > 80% | activity at 10 µM: 55 to 80%

Cc1cc2nn(Cc3ccc(Cl)cc3)cc2cc1Cl [Compound 206]
activity at 5 µM: > 80% | activity at 10 µM: 55 to 80%

Cc1cc2cn(Cc3ccc(Cl)cc3)nc2cc1Br [Compound 207]
activity at 5 µM: > 80% | activity at 10 µM: 55 to 80%

Cc1cc2nn(Cc3ccc(Cl)cc3)cc2cc1Br [Compound 208]
activity at 5 µM: 55 to 80% | activity at 10 µM: 20 to 54%

O=[N+]([O-])c1cc2cn(Cc3ccc(Cl)cc3)nc2cc1Cl [Compound 209]
activity at 5 µM: > 80% | activity at 10 µM: > 80%

Cc1cc2nn(Cc3ccc(Cl)cc3)cc2cc1[N+](=O)[O-] [Compound 210]
activity at 5 µM: 20 to 54% | activity at 10 µM: 20 to 54%

Clc1ccc(Cn2cc3cc(Br)ccc3n2)cc1 [Compound 211]
activity at 5 µM: > 80% | activity at 10 µM: 55 to 80%

FC(F)(F)c1ccc2cn(Cc3ccc(Cl)cc3)nc2c1 [Compound 212]
activity at 5 µM: 55 to 80% | activity at 10 µM: 20 to 54%
